Experimental data as given in patent US20080213396A1, “Copper Lowering Treatment Of Cardiac Disease” (The Regents of the University of Michigan, priority 2007, published 2008).

Key:
[1] = system: doxorubicin model of heart damage; experiment: Zinc vs. TM therapy mouse doxorubicin study; assay type: in vivo, C57BL/6 mice; settings: for day 4 troponin I plasma level: FIG. 2; for day 4 CK MB plasma level: FIG. 3; for plasma Cp at day 0 (day of DXR administration): after pretreatment to lower Cp
Method: (§1) Mice and mouse food. All mice were 7-8 weeks old at the start of the various studies, were C57BL/6 purchased from Jackson Laboratory, Bar Harbor, Me., and were housed at 21±2° C. on a 12 hr light/dark cycle in polycarbonate cages containing corn cob bedding. Experimental animals were housed in the University of Michigan Unit for Laboratory Animal Medicine facility and treated in accord with a protocol approved by the University of Michigan Institutional Animal Care and Use Committee. They were fed a mouse diet from Harlan/Teklad, Madison, Wis., to which copper and zinc had not been added by the manufacturer. Each lot was assayed by atomic absorption and found to contain about 0.6 mg of copper and about 6.0 mg of zinc/kg of food. Copper and zinc are then added to the diet such that the final contents were 2 mg copper and 10 mg zinc/kg of food.
Zinc vs. TM therapy mouse doxorubicin study. The zinc depot method involved injecting subcutaneously a 20 mg zinc/mL of corn oil suspension to achieve a dose of 110 mg of zinc/kg of mouse weight, weekly. With this method, Cp levels were lowered to target range in 4 weeks. Cp levels were lowered with TM in a second group of mice by using 0.015 mg/ml of TM in the drinking water, and changing the drinking water every day.
20 male mice were divided into four equal groups, 5 to receive depot zinc and then DXR, 5 to receive TM in the drinking water and then DXR, 5 to receive DXR only, and 5 to serve as controls. After Cp levels had been lowered in the first two groups, the first three groups of mice received DXR intraperitoneally at a single dose of 20 mg/kg body weight. Since DXR toxicity inhibits mice from drinking water, after DXR administration, TM mice were treated with a daily gavage of 0.2 mg of TM in 0.1 ml of water. Four days after DXR, all mice were sacrificed, and Cp, troponin I, creatine kinase (CK) MB, and lactic dehydrogenase (LDH) levels were all measured in the plasma according to previously described methods.
(§2) Assay Methods. Cp was measured by the oxidase enzyme using known methods. Troponin I, LDH, and CK MB were measured by kit methods using known methods.
(§3) Statistical Analysis. For the comparison of means analysis of variance (ANOVA) was used. All data in the figures are given as means+the standard error.

doxorubicin toxicity = settings: mice, previously found; cited from earlier work
Wilson's disease = settings: cited from earlier work
[2] = system: DXR induced cardiotoxicity and myocardial fibrosis; experiment: Trientine mouse doxorubicin study; assay type: in vivo, mice
Method: as §1, with “Each lot was assayed by atomic absorption and found to contain about 0.6 mg of copper and about 6.0 mg of zinc/kg of food.” left out
Trientine mouse doxorubicin study. The copper chelator trientine was studied and compared to TM to determine the effects, if any, of trientine on DXR induced cardiotoxicity and myocardial fibrosis in mice using doses of trientine by oral gavage to lower the Cp to target range.
as §2, §3

DXR toxicity = experiment: TM therapy copper supplementation doxorubicin study; assay type: in vivo, mice
Method: as §1
TM therapy copper supplementation doxorubicin study. In order to verify that the effect of TM in the DXR study was due to lowering copper, a study of DXR toxicity was done in which a TM treated group was supplemented with excess copper. In this study, 20 mice were divided into four equal groups, 5 to receive 0.015 mg/ml of TM in the drinking water to lower Cp and then receive DXR (TM was given by gavage after DRX), 5 to receive TM in the same dose and manner as the first group but the diet was supplemented with either 30 or 100 ppm copper such that the Cp didn't fall as far as with TM alone, and then they received DXR, 5 to receive DXR only, and 5 served as controls. After Cp was decreased in the first group, DXR in an intraperitoneal dose of 20 mg/kg body weight was given to the first three groups of mice. Four days after DXR the mice were sacrificed and serum Cp, troponin I, and LDH determined.
as §2, §3

[3] = Solubility and storage stability of TM salts; assay type: physicochemical
Text: In some embodiments, the salt of TM is an ammonium salt. […] Thus, the bulk drug should be stored in the absence of oxygen, or the oxygen will gradually exchange with the sulfur, rendering the drug ineffective over time. The bulk drug is therefore stored under argon.
Thus, other salts have been prepared and evaluated for solubility, stability and anticopper activity. […] In other embodiments, the salt choline TM has suitable desirable properties. In yet other embodiments, the salt tetraethyl TM has suitable properties. These exemplary salts of TM have suitable solubility in water, and behave similarly to ammonium salt of TM in in vitro copper complexing studies.

[4] = stability assays developed by the inventors (Brewer et al. 1991); cited from earlier work
[5] = system: myocardial toxicity resulting from administration of doxorubicin HCl; settings: administered contemporaneously with doxorubicin HCl; cited from earlier work
[6] = 4 days after DXR, vs DXR controls

[Zn] [zinc, reference compound]
day 4 troponin I plasma level [1, 6]: somewhat lower mean value than controls, but it didn't reach statistical significance
day 4 CK MB plasma level [1, 6]: no effect
plasma Cp at day 0 (day of DXR administration) ([1]; FIG. 1): equal suppression of Cp
time until Cp levels lowered to target range ([1]; zinc depot s.c. 110 mg zinc/kg weekly): 4 weeks
effect on doxorubicin toxicity (doxorubicin toxicity): attenuates doxorubicin toxicity

CC(C)(S)[C@@H](N)C(=O)O [penicillamine, reference compound]
neurological worsening during initial treatment (Wilson's disease; Wilson's disease, share of the time): 50%

[SH-].[SH-].[S]=[Mo]=[S] [TM, tetrathiomolybdate]
plasma Cp at day 4 (day of sacrifice), increase after DXR ([1]; 4 days after DXR 20 mg/kg i.p., FIG. 1): almost completely prevented
day 4 troponin I plasma level [1, 6]: statistically significant effect on maintaining a lower troponin I
day 4 CK MB plasma level [1, 6]: statistically significantly lower value than DXR controls
day 4 LDH plasma level ([1]; 4 days after DXR, vs DXR controls, FIG. 4): statistically significant effect on maintaining lower values than DXR controls
plasma Cp at day 0 (day of DXR administration) ([1]; FIG. 1): equal suppression of Cp
protection against cardiac damage, comparison with zinc ([1]; similar levels of copper lowering at the time of doxorubicin exposure): much more effective than zinc
protection of the heart against doxorubicin toxicity, comparison with trientine ([2]; same animal model): much more effective than trientine
Cp value on day zero (day of DXR administration) (DXR toxicity; group average, DXR only group about 25 U/L): about 12 U/L
plasma LDH at day 4 after DXR (DXR toxicity; vs DXR only animals, FIG. 6): statistically significantly lower than in the DXR only animals
mean troponin I level at day 4 after DXR (DXR toxicity; vs DXR only animals, FIG. 7): less than half of the DXR only animals
toxicity in humans (Wilson's disease; Wilson's disease work): extremely low level of toxicity
effect on neurological worsening during initial treatment (Wilson's disease; Wilson's disease): prevents the neurological worsening

[NH4+].[NH4+].[SH-].[SH-].[S]=[Mo]=[S] [TM as the ammonium salt]
solubility in water [3]: moderately water soluble
stability in air ([3]; bulk drug): mild air instability
stability in capsules ([3]; room temperature): stable in capsules for several months at room temperature
stability of bulk drug under argon [4]: stable for several years under argon

[Mo] [Mo, molybdenum]
toxicity of high doses (Wilson's disease; human, in vivo): without toxicity

C[C@@H](CN1CC(=O)NC(=O)C1)N1CC(=O)NC(=O)C1 [dexrazoxane, (S)-(+)-bis-4,4′-(1-methyl-1,2-ethanediyl)2,6-piperazinedione]
effect on myocardial toxicity of doxorubicin HCl [5]: can reduce or prevent the myocardial toxicity

CCC[N+](CCC)(CCC)CCC.CCC[N+](CCC)(CCC)CCC.[S]=[Mo](=[S])([S-])[S-] [TPTM, tetrapropyl tetrathiomolybdate]
solubility, stability and anticopper activity, overall [3]: has met all desired properties

NCCNCCNCCN [trientine]
effect on LDH ([2]; FIG. 5B): no protective effect
effect on CK-MB ([2]; FIG. 5C): no protective effect
effect on Troponin 1 ([2]; FIG. 5D): statistically insignificant effect
Cp at day 4 (4 days after DXR) ([2]; continued trientine therapy by oral gavage, FIG. 5A): increased into the normal range
Cp at day 0 (when DXR is given) ([2]; pretreated by oral gavage, FIG. 5A): down significantly, into the target range
